Assay results published in ChEMBL document CHEMBL6083257, “Discovery of small molecules for autophagy-lysosome degradation of immune checkpoint proteins” (Eur J Med Chem, 2024).
Active and inactive are the calls of the source. The calls are words filed in the database; no cut-off is given here.

Experiments:
[1] = target: Programmed cell death protein 1/Programmed cell death 1 ligand 1 (Homo sapiens, UniProt Q15116+Q9NZQ7); test: Inhibition of PD-1/PD-L1 interaction (unknown origin) incubated for 90 min by TR-FRET assay; type: protein-complex assay
RKO [2] = test: Upregulation of autophagy lysosome related Lamp1 gene expression in human RKO cells at 5 uM incubated for 24 hrs by qRT-PCR analysis; type: functional, cell-based
RKO [3] = test: Upregulation of autophagy lysosome related Atg9b gene expression in human RKO cells at 5 uM incubated for 24 hrs by qRT-PCR analysis; type: functional, cell-based
RKO [4] = test: Upregulation of autophagy lysosome related Mitf gene expression in human RKO cells at 5 uM incubated for 24 hrs by qRT-PCR analysis; type: functional, cell-based
RKO [5] = test: AUTAC (autophagy-targeting chimera) activity at PD-L1 in human RKO cells assessed as autophagy-lysosome mediated protein degradation by measuring protein level at 0.5 uM measured after 24 hrs by ECL substrate based Western blotting analysis relative to control; type: cell-based
RKO [6] = test: AUTAC (autophagy-targeting chimera) activity at PD-L1 in human RKO cells assessed as autophagy-lysosome mediated protein degradation by measuring protein level at 4 uM measured after 24 hrs by ECL substrate based Western blotting analysis relative to control; type: cell-based
RKO [7] = test: AUTAC (autophagy-targeting chimera) activity at PD-L1 in human RKO cells assessed as autophagy-lysosome mediated protein degradation measured after 24 hrs by ECL substrate based Western blotting analysis; type: cell-based; conditions: dose 0.5-2 µM
RKO [8] = test: AUTAC (autophagy-targeting chimera) activity at PD-L1 in human RKO cells assessed as autophagy-lysosome mediated protein degradation by measuring protein level at 2 uM measured after 24 hrs by ECL substrate based Western blotting analysis relative to control; type: cell-based
HepG2 [9] = test: Induction of VISTA degradation in human HepG2 cells assessed as decrease in VISTA protein level at 5 uM using ECL as substrate incubated for 1 hrs by immunoblot analysis; type: cell-based
HepG2 [10] = test: Induction of VISTA degradation in human HepG2 cells assessed as decrease in VISTA protein level at 5 uM using ECL as substrate incubated for 1 hrs by immunoblot analysis relative to control; type: cell-based; parameters: scale not given: the % may be the effect or the level left
[11] = Toxicity in male BALB/c mouse model mouse implanted in CT26 cells assessed as mortality at 120 mg/kg, po; type: organism-based; conditions: in vivo
[12] = Toxicity in male BALB/c mouse model mouse implanted in CT26 cells assessed as body weight loss at 120 mg/kg, po; type: organism-based; conditions: in vivo
CT26 [13] = test: In vivo antitumor activity against mouse CT26 cells implanted in male BALB/c mouse model assessed as decrease PD-L1 in tumor tissue at 120 mg/kg, po incubated for overnight by immunohistochemistry; type: functional, organism-based
CT26 [14] = test: In vivo antitumor activity against mouse CT26 cells implanted in male BALB/c mouse model assessed reduced tumor growth oral administration once daily; type: functional, organism-based; conditions: dose 30-120 mg/kg
RKO [15] = test: AUTAC (autophagy-targeting chimera ) activity in autophagy-lysosome mediated PD-L1 degradation in human RKO cells assessed as PD-L1 degradation at 10 uM using ECL as substrate incubated for 24 hrs in presence of pepstainA by immunoblot analysis; type: cell-based
RKO [16] = test: AUTAC (autophagy-targeting chimera ) activity in autophagy-lysosome mediated PD-L1 degradation in human RKO cells assessed as PD-L1 degradation at 0.5 uM using ECL as substrate incubated for 24 hrs in presence of Cycloheximide by immunoblot analysis; type: cell-based
CT26 [17] = test: Antitumor immunity against mouse CT26 cells implanted in male BALB/c mouse model assessed as increase infiltration of CD8+ cells at 30 to 120 mg/kg, po; type: functional, organism-based; conditions: dose 30-120 mg/kg
RKO [18] = test: AUTAC (autophagy-targeting chimera) activity at PD-L1 in human RKO cells assessed as autophagy-lysosome mediated protein degradation by measuring reduced PD-L1 level at 0.5 uM incubated for 24 hrs by ECL substrate based Western blotting analysis relative to control; type: cell-based; parameters: scale not given: the % may be the effect or the level left
CT26 [19] = test: In vivo antitumor activity against mouse CT26 cells implanted in male BALB/c mouse model assessed reduced tumor growth at 60 mg/kg oral administration once daily; type: functional, organism-based
RKO [20] = test: Induction of autophagy in human RKO cells assessed as increase LC3II expression at 1 uM incubated for 24 hrs in presence of 3-methyladenine by immunoblot analysis; type: functional, cell-based
RKO [21] = test: Induction of autophagosome lysosome fusion in human RKO cells transfected with Ad-mCherry-GFP-LC3B incubated for 24 hrs by inverted fluorescence microscope analysis; type: functional, cell-based
RKO [22] = test: AUTAC (autophagy-targeting chimera ) activity in autophagy-lysosome mediated PD-L1 degradation in human RKO cells assessed as PD-L1 degradation at 0.5 uM using ECL as substrate incubated for 24 hrs in presence of 3-methyladenine by immunoblot analysis; type: cell-based
RKO [23] = test: AUTAC (autophagy-targeting chimera) activity at PD-L1 in human RKO cells assessed as autophagy-lysosome mediated protein degradation by measuring reduced PD-L1 level at 1 uM incubated for 24 hrs by ECL substrate based Western blotting analysis relative to control; type: cell-based; parameters: scale not given: the % may be the effect or the level left
RKO [24] = test: AUTAC (autophagy-targeting chimera ) activity in autophagy-lysosome mediated PD-L1 degradation in human RKO cells assessed as PD-L1 degradation at 50 uM using ECL as substrate incubated for 24 hrs in presence of chloroquine by immunoblot analysis; type: cell-based
RKO [25] = test: AUTAC (autophagy-targeting chimera) activity at PD-L1 in human RKO cells assessed as autophagy-lysosome mediated protein degradation at 2 uM measured after 24 hrs by ECL substrate based Western blotting analysis; type: cell-based
RKO [26] = test: AUTAC (autophagy-targeting chimera) activity at PD-L1 in human RKO cells assessed as autophagy-lysosome mediated protein degradation by measuring protein level at 1 uM measured after 24 hrs by ECL substrate based Western blotting analysis relative to control; type: cell-based
RKO [27] = test: AUTAC (autophagy-targeting chimera) activity at PD-L1 in human RKO cells assessed as autophagy-lysosome mediated protein degradation at 4 uM measured after 24 hrs by ECL substrate based Western blotting analysis; type: cell-based
RKO [28] = test: AUTAC (autophagy-targeting chimera) activity at PD-L1 in human RKO cells assessed as autophagy-lysosome mediated protein degradation at 1 uM measured after 24 hrs by ECL substrate based Western blotting analysis; type: cell-based

Sequence of Programmed cell death protein 1/Programmed cell death 1 ligand 1 (Q15116 whole entry): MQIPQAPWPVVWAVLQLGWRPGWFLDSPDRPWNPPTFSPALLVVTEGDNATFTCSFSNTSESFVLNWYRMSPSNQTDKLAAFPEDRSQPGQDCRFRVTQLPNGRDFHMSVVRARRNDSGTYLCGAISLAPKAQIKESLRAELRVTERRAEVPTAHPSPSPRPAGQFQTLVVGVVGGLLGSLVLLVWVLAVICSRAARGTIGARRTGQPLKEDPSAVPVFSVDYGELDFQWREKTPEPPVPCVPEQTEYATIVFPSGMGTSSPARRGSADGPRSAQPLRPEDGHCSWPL
Sequence of Programmed cell death protein 1/Programmed cell death 1 ligand 1 (Q9NZQ7 whole entry): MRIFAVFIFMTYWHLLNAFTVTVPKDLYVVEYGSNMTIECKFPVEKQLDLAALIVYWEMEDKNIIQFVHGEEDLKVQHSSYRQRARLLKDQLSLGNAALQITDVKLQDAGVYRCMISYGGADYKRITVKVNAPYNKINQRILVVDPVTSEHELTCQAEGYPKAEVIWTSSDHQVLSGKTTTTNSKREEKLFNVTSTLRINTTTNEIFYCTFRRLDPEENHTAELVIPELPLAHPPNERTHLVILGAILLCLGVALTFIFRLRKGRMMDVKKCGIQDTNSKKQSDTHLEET

For `OCCNCc1cccc(Nc2nnc(-c3ccccc3)o2)c1`, the IC50 [1] was greater than 1000 nM, the Activity (RKO [2]) was “Active” and the Activity (RKO [3]) was “Active”. The Activity (RKO [4]) was “Active”.
In the case of `CNc1cccc(CNCCOCCOCCOCCNCc2cccc(Nc3nnc(-c4cccc(-c5ccccc5)c4C)o3)c2)c1`, the IC50 [1] is reported as 22.3 nM, the Activity (RKO [5]) is reported as 93% and the Activity (RKO [6]) is reported as 28%. The Activity (RKO [7]) was “Dose-dependent-effect” and the Activity (RKO [8]) was 33%.
In the case of `Cc1c(-c2ccccc2)ccc2nc(-c3cccc(CNCCOCCOCCOCCNCc4cccc(Nc5nnc(-c6ccccc6)o5)c4)c3)[nH]c12`, the Activity (HepG2 [9]) is reported as “Active” and the Activity (HepG2 [10]) is reported as 89%.
For `Cc1c(-c2ccccc2)cccc1-c1nnc(Nc2cccc(CNCCOCCOCCOCCOCCNCc3cccc(Nc4nnc(-c5ccccc5)o4)c3)c2)o1`, the Activity [11] was “Non-toxic”, the Activity [12] was “Non-toxic” and the Activity (CT26 [13]) was “Active”. The IC50 [1] was 22.8 nM, the Activity (CT26 [14]) was “Dose-dependent-effect” and the Activity (RKO [15]) was “Active”. For the same compound, the Activity (RKO [16]) was “Active”, the Activity (CT26 [17]) was “Active” and the Activity (RKO [18]) was 70%. The Activity (CT26 [19]) was “Active”, the Activity (RKO [20]) was “Active” and the Activity (RKO [21]) was “Active”. The Activity (RKO [22]) was “Active”, the Activity (RKO [7]) was “Dose-dependent-effect” and the Activity (RKO [23]) was 90%. For the same compound, the Activity (RKO [24]) was “Active”.
For `Cc1c(-c2ccccc2)cccc1-c1nnc(Nc2cccc(CNCCOCCOCCOCCNCc3cccc(-c4nc5ccc(-c6ccccc6)c(C)c5[nH]4)c3)c2)o1`, the Activity (HepG2 [9]) was “Active”.
In the case of `Cc1c(-c2ccccc2)ccc2nc(-c3cccc(CNCCOCCOCCOCCOCCNCc4cccc(Nc5nnc(-c6ccccc6)o5)c4)c3)[nH]c12`, the Activity (HepG2 [9]) is reported as “Active” and the Activity (HepG2 [10]) is reported as 87%.
With `Cc1c(-c2ccccc2)cccc1-c1nnc(Nc2cccc(CNCCOCCOCCNCc3cccc(Nc4nnc(-c5ccccc5)o4)c3)c2)o1` the IC50 [1] was 30.6 nM.
For `Cc1c(-c2ccccc2)cccc1-c1nnc(Nc2cccc(CNCCOCCOCCOCCOCCNCc3cccc(-c4nc5ccc(-c6ccccc6)c(C)c5[nH]4)c3)c2)o1`, the Activity (HepG2 [9]) was “Active”.
In the case of `Cc1c(-c2ccccc2)cccc1-c1nnc(Nc2cccc(CNCCOCCOCCOCCOCCOCCNCc3cccc(Nc4nnc(-c5ccccc5)o4)c3)c2)o1`, the IC50 [1] is reported as 23 nM.
In the case of `Cc1c(-c2ccccc2)cccc1-c1nnc(Nc2cccc(CNCCOCCOCCOCCNCc3cccc(Nc4nnc(-c5cccc(-c6ccccc6)c5C)o4)c3)c2)o1`, the IC50 [1] is reported as 24.6 nM, the Activity (RKO [25]) is reported as “Active” and the Activity (RKO [7]) is reported as “Dose-dependent-effect”.
With `Cc1c(-c2ccccc2)cccc1-c1nnc(Nc2cccc(CNCCOCCNCc3cccc(Nc4nnc(-c5cccc(-c6ccccc6)c5C)o4)c3)c2)o1` the IC50 [1] was 39.4 nM.
`Cc1c(-c2ccccc2)cccc1-c1nnc(Nc2cccc(CNCCOCCOCCNCc3cccc(Nc4nnc(-c5cccc(-c6ccccc6)c5C)o4)c3)c2)o1` showed an IC50 [1] of 25.7 nM.
For `CNc1cccc(CNCCO)c1`, the IC50 [1] was greater than 1000 nM, the Activity (RKO [2]) was “Active” and the Activity (RKO [3]) was “Active”. The Activity (RKO [4]) was “Active”.
Work on `Cc1c(-c2ccccc2)cccc1-c1nnc(Nc2cccc(CNCCOCCOCCOCCNCc3cccc(Nc4nnc(-c5ccccc5)o4)c3)c2)o1` yielded an IC50 [1] of 28.4 nM, an Activity (RKO [26]) of 72% and an Activity (RKO [5]) of 90%. For the same compound, the Activity (RKO [6]) was 4%, the Activity (RKO [27]) was “Active” and the Activity (RKO [28]) was “Active”. The Activity (RKO [7]) was “Dose-dependent-effect” and the Activity (RKO [8]) was 44%.
